Results from patent publication US20140213575A1, “6H-Thieno[3,2-f][1,2,4]triazolo[4,3-a][1,4]diazepines” (BAYER INTELLECTUAL PROPERTY GMBH, priority 2011, published 2014).

Key:
B16F10 melanoma = B16F10 melanoma tumour model
Description: (§1) C57BL/6 mice were inoculated on day 0 with 0.5×10^6 cells in 0.1 ml medium, subcutaneously, in the right flank. […] The substances were administered orally for 10 days (day 2 to day 11). […] Practical example 2 was applied at a dose of 160 or 120 mg/kg.

[1] = B16F10 melanoma tumour model; settings: C57BL/6, mouse, in vivo, po
Description: as §1

[2] = Plasma concentrations from in-vivo tests and PK parameters; set-up: AUC(0-tlast): unit not given here; settings: mouse; for Plasma concentration: 50 mg/kg p.o.; for unbound exposure in comparison with comparative example V1: after single oral administration, by AUC(0-tlast),norm,u; for AUC(0-tlast),norm,u: AUCnorm multiplied by fu; for AUC(0-tlast),norm: dose-normalized; for tlast: last time point with measurable plasma concentration
Description: After thawing and shaking, the samples are centrifuged for 20 minutes at 4° C. and approx. 2000×g. An aliquot of the supernatant (approx. 25 μL) is measured by LCMS analysis. If high plasma or tissue levels are expected (>ULOQ, as a rule 5 μM) the precipitated samples are additionally diluted 1:100 with ACN/H2O (80/20, v/v)+internal standard and corresponding aliquots are measured by LCMS. For this, the test substance is added in 5-9 concentrations, corresponding to the determination range of the analytical method, to a control matrix (calibration samples), e.g. 0, 1, 10, 100, 1000, 5000 nM. For this, a portion of solid is weighed and is dissolved in DMSO (as a rule 1 mM stock solution). This stock solution is further diluted 1:10 with DMSO ([…]). Then 1:5 (v/v) ACN+internal standard (soln. A) is added to the calibration samples and processed further as with the plasma samples. The calibration series in solvent takes place similarly to the plasma calibration described. The test substance is in this case prepared in ACN/H2O (50/50, v/v) and then 1:5 (v/v) ACN+internal standard is added to the samples. This series serves for calibration of the diluted samples. The following PK parameters are calculated from these concentration-time profiles obtained: […]
AUC(0-tlast),norm multiplied by the free fraction (fu) of the species investigated.

MDA-MB-231 cells = assay: Cellular proliferation assay (alamarBlue) MDA-MB-231; type: cell-based; settings: Homo sapiens, 96 hours, read-out: Breast MDA-MB-231 IC50
Description: (§2) In accordance with the invention, the ability of the substances to inhibit the proliferation of various cell lines was determined. Cell viability was determined by means of the alamarBlue® reagent (Invitrogen). […] After incubation overnight at 37° C., the fluorescence values were determined (CI values). […] Then the fluorescence values were determined (CO values).
(§3) The substances were investigated in the cell lines in Table 1, which for example represent the stated indications: […]

MOLP-8 cells = assay: Cellular proliferation assay (alamarBlue) MOLP-8; type: cell-based; settings: Homo sapiens, 120 hours, read-out: Multiple myeloma MOLP-8 IC50
Description: as §2, §3

[3] = In-vivo tolerability in the mouse; set-up: species or system female NMRI nude mice; settings: for MTD / MTD at 5 days: female, NMRI nude, mouse, in vivo, oral; for MTD: once daily, read-out: maximum tolerated treatment dose (MTD), single daily treatment; for MTD at 5 days: twice daily, after 5 days of treatment, read-out: maximum tolerated treatment dose (MTD), twice daily administration; for Drug-induced deaths (day): 3 animals per group; for tolerability at all doses tested: treatment once or twice daily
Description: The substances were formulated in NMP/PEG300 (1/9 V/V). They were administered orally, in an amount of 10 ml/kg, once or twice daily for a period of 5 to 7 days to female NMRI nude mice (6-8 weeks old; 3 animals per group). Body weight and mortality of the mice were monitored daily up to the end of the study. Toxicity was defined as follows: ≧10% substance-induced deaths or ≧20% weight loss.

MOLM-13 cells [4] = assay: MOLM-13 acute monocytic leukaemia tumour model; settings: for T/C value: day 3 to day 14, measured on day 14; for activity on tumour growth: significance P<0.05
Description: NMRI nude mice were inoculated subcutaneously in the right flank on day 0 with 2×10^6 MOLM-13 cells in 0.1 ml Matrigel. […] Practical example 1 and practical example 2 were dissolved in 40% PEG400, 5% ethanol, 25% Solutol. The substances were administered orally, daily for […] (day 3 to day 14). […] Practical examples 1 and 2 were applied at a daily dose of 200 (highest dose used), 120 or 70 mg/kg.

MOLM-13 cells [5] = assay: Cellular proliferation assay (alamarBlue) MOLM-13; type: cell-based; settings: Homo sapiens, 96 hours, read-out: Leukaemia MOLM-13 IC50
Description: as §2, §3

LNCaP cells = assay: Cellular proliferation assay (alamarBlue) LNCaP; type: cell-based; settings: Homo sapiens, 168 hours, read-out: Prostate LNCaP IC50
Description: as §2, §3

[6] = oral 50 mg/kg, QD × 5, once daily
[7] = oral 50 mg/kg, QD × 5, twice daily
[8] = oral 100 mg/kg, QD × 5, once daily
[9] = oral 100 mg/kg, QD × 5, twice daily
[10] = oral 200 mg/kg, QD × 5, once daily

Cc1sc2c(c1C)C(c1ccc(Cl)cc1)=N[C@@H](CC(=O)N1CC3(COC3)C1)c1nnc(C)n1-2 [Example 2, 2-[(S)-4-(4-Chlorophenyl)-2,3,9-trimethyl-6H-thieno[3,2-f][1,2,4]triazolo[4,3-a][1,4]diazepin-6-yl]-1-(2-oxa-6-azaspiro[3.3]hept-6-yl)ethan-1-one]
T/C value (B16F10 melanoma; 120 mg/kg (MTD), oral, day 2 to day 11): 27%
weight loss (B16F10 melanoma; 120 mg/kg dose, oral, day 2 to day 11): 2%
weight loss (B16F10 melanoma; 160 mg/kg dose, oral, day 2 to day 11): 5%
mice killed because of weight loss above 20% (B16F10 melanoma; group treated with 70 mg/kg, day 10): one mouse
MTD at 10 days [1]: 120 mg/kg
Plasma concentration ([2]; 1 h): 1366.5 ng/mL
Plasma concentration ([2]; 3 h): 2694.4 ng/mL
Plasma concentration ([2]; 6 h): 1111.0 ng/mL
unbound exposure in comparison with comparative example V1 [2]: higher unbound exposure
AUC(0-tlast) ([2]; single oral dose 50 mg/kg): 10
AUC(0-tlast),norm,u ([2]; single oral dose 50 mg/kg): 0.050 kg·h/L
AUC(0-tlast),norm ([2]; single oral dose 50 mg/kg): 0.20 kg·h/L
tlast ([2]; single oral dose 50 mg/kg): 6.0 h
IC50 (MDA-MB-231 cells): 117 nM
IC50 (MOLP-8 cells): 64 nM
MTD [3]: ≥ 200 mg/kg
MTD at 5 days [3]: ≥ 100 mg/kg
% maximum body weight change (day) [3, 6]: +5 (6) %
Remarks (tolerability) [3, 6]: tolerated
Drug-induced deaths (day) [3, 6]: 0/3
% maximum body weight change (day) [3, 7]: +2 (6) %
Remarks (tolerability) [3, 7]: tolerated
Drug-induced deaths (day) [3, 7]: 0/3
% maximum body weight change (day) [3, 8]: −1 (3) %
Remarks (tolerability) [3, 8]: tolerated
Drug-induced deaths (day) [3, 8]: 0/3
% maximum body weight change (day) [3, 9]: −3 (5) %
Remarks (tolerability) [3, 9]: HDT tolerated
Drug-induced deaths (day) [3, 9]: 0/3
% maximum body weight change (day) [3, 10]: +4 (4) %
Remarks (tolerability) [3, 10]: HDT tolerated
Drug-induced deaths (day) [3, 10]: 0/3
tolerability at all doses tested [3]: well tolerated
T/C value (MOLM-13 cells [4]; 70 mg/kg oral daily): 46%
activity on tumour growth (MOLM-13 cells [4]; 70 mg/kg oral daily): not statistically significant
T/C value (MOLM-13 cells [4]; 120 mg/kg oral daily): 46%
activity on tumour growth (MOLM-13 cells [4]; 120 mg/kg oral daily): not statistically significant
T/C value (MOLM-13 cells [4]; 200 mg/kg oral daily): 23%
activity on tumour growth (MOLM-13 cells [4]; 200 mg/kg oral daily): active
deaths in the treated group (MOLM-13 cells [4]; MOLM-13 tumour model, dose group not stated): one unexplained death
IC50 (MOLM-13 cells [5]): 98 nM
IC50 (LNCaP cells): 80 nM

Cc1sc2c(c1C)C(c1ccc(Cl)cc1)=N[C@@H](CC(=O)N1C3CCC1CC(=O)C3)c1nnc(C)n1-2 [Example 1, 8-{2-[(S)-4-(4-Chlorophenyl)-2,3,9-trimethyl-6H-thieno[3,2-f][1,2,4]triazolo[4,3-a][1,4]diazepin-6-yl]acetyl}-8-azabicyclo[3.2.1]octan-3-one]
concentration at 1 h ([2]; in vivo, po, 100 mg/kg p.o., 1 h): 1470 ng/mL
unbound exposure in comparison with comparative example V1 [2]: higher unbound exposure
AUC(0-tlast) ([2]; single oral dose 100 mg/kg): 4.9
AUC(0-tlast),norm,u ([2]; single oral dose 100 mg/kg): 0.006 kg·h/L
AUC(0-tlast),norm ([2]; single oral dose 100 mg/kg): 0.05 kg·h/L
tlast ([2]; single oral dose 100 mg/kg): 24 h
concentration at 3 h ([2]; plasma, po, 100 mg/kg p.o., 3 h): 836 ng/mL
concentration at 6 h ([2]; plasma, po, 100 mg/kg p.o., 6 h): 176 ng/mL
concentration at 24 h ([2]; plasma, po, 100 mg/kg p.o., 24 h): 1.56 ng/mL
IC50 (MDA-MB-231 cells): 110 nM
IC50 (MOLP-8 cells): 70 nM
MTD [3]: ≥ 200 mg/kg
MTD at 5 days [3]: ≥ 100 mg/kg
% maximum body weight change (day) [3, 6]: +7 (6) %
Remarks (tolerability) [3, 6]: tolerated
Drug-induced deaths (day) [3, 6]: 0/3
% maximum body weight change (day) [3, 7]: +5 (4) %
Remarks (tolerability) [3, 7]: tolerated
Drug-induced deaths (day) [3, 7]: 0/3
% maximum body weight change (day) [3, 8]: +6 (6) %
Remarks (tolerability) [3, 8]: tolerated
Drug-induced deaths (day) [3, 8]: 0/3
% maximum body weight change (day) [3, 9]: −1 (6) %
Remarks (tolerability) [3, 9]: HDT tolerated
Drug-induced deaths (day) [3, 9]: 0/3
% maximum body weight change (day) [3, 10]: +5 (6) %
Remarks (tolerability) [3, 10]: HDT tolerated
Drug-induced deaths (day) [3, 10]: 0/3
tolerability at all doses tested [3]: well tolerated
T/C value (MOLM-13 cells [4]; 70 mg/kg oral daily): 58%
activity on tumour growth (MOLM-13 cells [4]; 70 mg/kg oral daily): inactive
T/C value (MOLM-13 cells [4]; 120 mg/kg oral daily): 46%
activity on tumour growth (MOLM-13 cells [4]; 120 mg/kg oral daily): showed activity
T/C value (MOLM-13 cells [4]; 200 mg/kg oral daily): 39%
activity on tumour growth (MOLM-13 cells [4]; 200 mg/kg oral daily): inhibited tumour growth
IC50 (MOLM-13 cells [5]): 91 nM
IC50 (LNCaP cells): 90 nM
